Reference: ChEMBL document CHEMBL4665624, “Synthesis of 5-(4-(1H-phenanthro[9,10-d]imidazol-2-yl)benzylidene)thiazolidine-2,4-dione as promising DNA and serum albumin-binding agents and evaluation of antitumor activity” (Eur J Med Chem, 2019)

Experiments:
MCF7 = assay: Antitumor activity against human MCF7 cells assessed as cell growth inhibition at 10 uM incubated for 48 hrs by sulforhodamine B assay; format: functional; conditions: read-out: GI
M14 = assay: Antitumor activity against human M14 cells assessed as cell growth inhibition at 10 uM incubated for 48 hrs by sulforhodamine B assay; format: functional; conditions: read-out: GI
ACHN = assay: Antitumor activity against human ACHN cells assessed as cell growth inhibition at 10 uM incubated for 48 hrs by sulforhodamine B assay; format: functional; conditions: read-out: GI
COLO 205 = assay: Antitumor activity against human COLO205 cells assessed as cell growth inhibition at 10 uM incubated for 48 hrs by sulforhodamine B assay; format: functional; conditions: read-out: GI
RPMI-8226 = assay: Antitumor activity against human RPMI8226 cells assessed as cell growth inhibition at 10 uM incubated for 48 hrs by sulforhodamine B assay; format: functional; conditions: read-out: GI
A498 = assay: Antitumor activity against human A498 cells assessed as cell growth inhibition at 10 uM incubated for 48 hrs by sulforhodamine B assay; format: functional; conditions: read-out: GI
UACC-62 = assay: Antitumor activity against human UACC-62 cells assessed as cell growth inhibition at 10 uM incubated for 48 hrs by sulforhodamine B assay; format: functional; conditions: read-out: GI
Malme-3M = assay: Antitumor activity against human MALME-3M cells assessed as cell growth inhibition at 10 uM incubated for 48 hrs by sulforhodamine B assay; format: functional; conditions: read-out: GI
U-251 = assay: Antitumor activity against human U251 cells assessed as cell growth inhibition at 10 uM incubated for 48 hrs by sulforhodamine B assay; format: functional; conditions: read-out: GI
SF-268 = assay: Antitumor activity against human SF268 cells assessed as cell growth inhibition at 10 uM incubated for 48 hrs by sulforhodamine B assay; format: functional; conditions: read-out: GI
HL-60(TB) = assay: Antitumor activity against human HL-60(TB) cells assessed as cell growth inhibition at 10 uM incubated for 48 hrs by sulforhodamine B assay; format: functional; conditions: read-out: GI
NCI-H522 = assay: Antitumor activity against human NCI-H522 cells assessed as cell growth inhibition at 10 uM incubated for 48 hrs by sulforhodamine B assay; format: functional; conditions: read-out: GI
SF-295 = assay: Antitumor activity against human SF295 cells assessed as cell growth inhibition at 10 uM incubated for 48 hrs by sulforhodamine B assay; format: functional; conditions: read-out: GI
HOP-92 = assay: Antitumor activity against human HOP92 cells assessed as cell growth inhibition at 10 uM incubated for 48 hrs by sulforhodamine B assay; format: functional; conditions: read-out: GI
PC-3 = assay: Antitumor activity against human PC-3 cells assessed as cell growth inhibition at 10 uM incubated for 48 hrs by sulforhodamine B assay; format: functional; conditions: read-out: GI
Hs-578T = assay: Antitumor activity against human HS 578T cells assessed as cell growth inhibition at 10 uM incubated for 48 hrs by sulforhodamine B assay; format: functional; conditions: read-out: GI
MDA-MB-435 = assay: Antitumor activity against human MDA-MB-435 cells assessed as cell growth inhibition at 10 uM incubated for 48 hrs by sulforhodamine B assay; format: functional; conditions: read-out: GI
OVCAR-8 = assay: Antitumor activity against human OVCAR-8 cells assessed as cell growth inhibition at 10 uM incubated for 48 hrs by sulforhodamine B assay; format: functional; conditions: read-out: GI
CCRF-CEM = assay: Antitumor activity against human CCRF-CEM cells assessed as cell growth inhibition at 10 uM incubated for 48 hrs by sulforhodamine B assay; format: functional; conditions: read-out: GI
LOX IMVI = assay: Antitumor activity against human LOX IMVI cells assessed as cell growth inhibition at 10 uM incubated for 48 hrs by sulforhodamine B assay; format: functional; conditions: read-out: GI
SNB-19 = assay: Antitumor activity against human SNB-19 cells assessed as cell growth inhibition at 10 uM incubated for 48 hrs by sulforhodamine B assay; format: functional; conditions: read-out: GI
UO-31 = assay: Antitumor activity against human UO-31 cells assessed as cell growth inhibition at 10 uM incubated for 48 hrs by sulforhodamine B assay; format: functional; conditions: read-out: GI
SR = assay: Antitumor activity against human SR cells assessed as cell growth inhibition at 10 uM incubated for 48 hrs by sulforhodamine B assay; format: functional; conditions: read-out: GI
HCC 2998 = assay: Antitumor activity against human HCC2998 cells assessed as cell growth inhibition at 10 uM incubated for 48 hrs by sulforhodamine B assay; format: functional; conditions: read-out: GI
SK-MEL-28 = assay: Antitumor activity against human SK-MEL-28 cells assessed as cell growth inhibition at 10 uM incubated for 48 hrs by sulforhodamine B assay; format: functional; conditions: read-out: GI
MDA-MB-468 = assay: Antitumor activity against human MDA-MB-468 cells assessed as cell growth inhibition at 10 uM incubated for 48 hrs by sulforhodamine B assay; format: functional; conditions: read-out: GI
OVCAR-4 = assay: Antitumor activity against human OVCAR-4 cells assessed as cell growth inhibition at 10 uM incubated for 48 hrs by sulforhodamine B assay; format: functional; conditions: read-out: GI
786-0 = assay: Antitumor activity against human 786-0 cells assessed as cell growth inhibition at 10 uM incubated for 48 hrs by sulforhodamine B assay; format: functional; conditions: read-out: GI
K562 = assay: Antitumor activity against human K562 cells assessed as cell growth inhibition at 10 uM incubated for 48 hrs by sulforhodamine B assay; format: functional; conditions: read-out: GI
SN12C = assay: Antitumor activity against human SN12C cells assessed as cell growth inhibition at 10 uM incubated for 48 hrs by sulforhodamine B assay; format: functional; conditions: read-out: GI
MDA-MB-231 = assay: Antitumor activity against human MDA-MB-231/ATCC cells assessed as cell growth inhibition at 10 uM incubated for 48 hrs by sulforhodamine B assay; format: functional; conditions: read-out: GI
OVCAR-3 = assay: Antitumor activity against human OVCAR-3 cells assessed as cell growth inhibition at 10 uM incubated for 48 hrs by sulforhodamine B assay; format: functional; conditions: read-out: GI
NCI-H23 = assay: Antitumor activity against human NCI-H23 cells assessed as cell growth inhibition at 10 uM incubated for 48 hrs by sulforhodamine B assay; format: functional; conditions: read-out: GI
NCI-H226 = assay: Antitumor activity against human NCI-H226 assessed as cell growth inhibition at 10 uM incubated for 48 hrs by sulforhodamine B assay; format: functional; conditions: read-out: GI
SW-620 = assay: Antitumor activity against human SW620 cells assessed as cell growth inhibition at 10 uM incubated for 48 hrs by sulforhodamine B assay; conditions: SW-620, 48 h, read-out: GI
HT-29 = assay: Antitumor activity against human HT-29 cells assessed as cell growth inhibition at 10 uM incubated for 48 hrs by sulforhodamine B assay; format: functional; conditions: read-out: GI
HCT-15 = assay: Antitumor activity against human HCT15 cells assessed as cell growth inhibition at 10 uM incubated for 48 hrs by sulforhodamine B assay; format: functional; conditions: read-out: GI
EKVX = assay: Antitumor activity against human EKVX cells assessed as cell growth inhibition at 10 uM incubated for 48 hrs by sulforhodamine B assay; format: functional; conditions: read-out: GI
BT-549 = assay: Antitumor activity against human BT-549 cells assessed as cell growth inhibition at 10 uM incubated for 48 hrs by sulforhodamine B assay; format: functional; conditions: read-out: GI
NCI-H460 = assay: Antitumor activity against human NCI-H460 assessed as cell growth inhibition at 10 uM incubated for 48 hrs by sulforhodamine B assay; format: functional; conditions: read-out: GI
IGROV-1 = assay: Antitumor activity against human IGROV1 cells assessed as cell growth inhibition at 10 uM incubated for 48 hrs by sulforhodamine B assay; format: functional; conditions: read-out: GI
KM12 = assay: Antitumor activity against human KM12 cells assessed as cell growth inhibition at 10 uM incubated for 48 hrs by sulforhodamine B assay; format: functional; conditions: read-out: GI
SNB-75 = assay: Antitumor activity against human SNB-75 cells assessed as cell growth inhibition at 10 uM incubated for 48 hrs by sulforhodamine B assay; format: functional; conditions: read-out: GI
NCI/ADR-RES = assay: Antitumor activity against human NCI/ADR-RES cells assessed as cell growth inhibition at 10 uM incubated for 48 hrs by sulforhodamine B assay; format: functional; conditions: read-out: GI
RXF 393 = assay: Antitumor activity against human RXF 393 cells assessed as cell growth inhibition at 10 uM incubated for 48 hrs by sulforhodamine B assay; format: functional; conditions: read-out: GI
HCT-116 = assay: Antitumor activity against human HCT116 cells assessed as cell growth inhibition at 10 uM incubated for 48 hrs by sulforhodamine B assay; format: functional; conditions: read-out: GI
MOLT-4 = assay: Antitumor activity against human MOLT4 cells assessed as cell growth inhibition at 10 uM incubated for 48 hrs by sulforhodamine B assay; format: functional; conditions: read-out: GI
SK-OV-3 = assay: Antitumor activity against human SK-OV-3 cells assessed as cell growth inhibition at 10 uM incubated for 48 hrs by sulforhodamine B assay; format: functional; conditions: read-out: GI

SMILES: CCN(CC)c1ccc(-c2nc3c4ccccc4c4ccccc4c3o2)c(O)c1
- inhibition of growth at 10 µM (MCF7): 43.2%
- inhibition of growth at 10 µM (M14): 12.4%
- inhibition of growth at 10 µM (ACHN): 23.1%
- inhibition of growth at 10 µM (COLO 205): 12.8%
- inhibition of growth at 10 µM (RPMI-8226): 44.6%
- inhibition of growth at 10 µM (A498): < 10%
- inhibition of growth at 10 µM (UACC-62): 11.2%
- inhibition of growth at 10 µM (Malme-3M): < 10%
- inhibition of growth at 10 µM (U-251): 15.6%
- inhibition of growth at 10 µM (SF-268): 12%
- inhibition of growth at 10 µM (HL-60(TB)): 31.4%
- inhibition of growth at 10 µM (NCI-H522): 19.8%
- inhibition of growth at 10 µM (SF-295): < 10%
- inhibition of growth at 10 µM (HOP-92): 11%
- inhibition of growth at 10 µM (PC-3): 20.3%
- inhibition of growth at 10 µM (Hs-578T): 10%
- inhibition of growth at 10 µM (MDA-MB-435): < 10%
- inhibition of growth at 10 µM (OVCAR-8): 15%
- inhibition of growth at 10 µM (CCRF-CEM): 41.4%
- inhibition of growth at 10 µM (LOX IMVI): 75.3%
- inhibition of growth at 10 µM (SNB-19): < 10%
- inhibition of growth at 10 µM (UO-31): 35.2%
- inhibition of growth at 10 µM (SR): 72.4%
- inhibition of growth at 10 µM (HCC 2998): 18.7%
- inhibition of growth at 10 µM (SK-MEL-28): < 10%
- inhibition of growth at 10 µM (MDA-MB-468): 15.8%
- inhibition of growth at 10 µM (OVCAR-4): < 10%
- inhibition of growth at 10 µM (786-0): 12.2%
- inhibition of growth at 10 µM (K562): 79.7%
- inhibition of growth at 10 µM (SN12C): < 10%
- inhibition of growth at 10 µM (MDA-MB-231): 35.2%
- inhibition of growth at 10 µM (OVCAR-3): 10.3%
- inhibition of growth at 10 µM (NCI-H23): 13.5%
- inhibition of growth at 10 µM (NCI-H226): < 10%
- inhibition of growth at 10 µM (SW-620): 31.4%
- inhibition of growth at 10 µM (HT-29): 64.3%
- inhibition of growth at 10 µM (HCT-15): 65.1%
- inhibition of growth at 10 µM (EKVX): 20.2%
- inhibition of growth at 10 µM (BT-549): < 10%
- inhibition of growth at 10 µM (NCI-H460): 15%
- inhibition of growth at 10 µM (IGROV-1): 19.2%
- inhibition of growth at 10 µM (KM12): 55.6%
- inhibition of growth at 10 µM (SNB-75): < 10%
- inhibition of growth at 10 µM (NCI/ADR-RES): 11%
- inhibition of growth at 10 µM (RXF 393): 16.6%
- inhibition of growth at 10 µM (HCT-116): 16.6%
- inhibition of growth at 10 µM (MOLT-4): 39%
- inhibition of growth at 10 µM (SK-OV-3): < 10%
